From patent EP2905286A1, “Novel diazabicyclohydrocarbon-Pt complexes and the use thereof as pharmaceuticals” (Studiengesellschaft Kohle mbH, priority 2014, dated 2015) come the findings set out here.

Series [1] has as its system A2780. Description: MTT cell viability assay. The settings on record: A2780 cells, 72 h incubation. The class given is cell-based. The method, then: (§1) The rate of cell-survival under the action of test compounds was evaluated by an improved MTT assay as previously described for 3-(4,5-dimethylthiazol-2-yl)-2,5-diphenyltetrazolium bromide (MTT, Applichem, Germany) (Mueller, H., Kassack, M. U., Wiese, M. J. Biomol. Screen. 2004, 9, 506-515).
(§2) The assay is based on the ability of viable cells to metabolize yellow MTT to violet formazane crystals that can be detected spectrophotometrically. In brief, A2780 (ECACC, Salisbury, UK) and A2780 CisR cells (established by exposure of A2780 cells to weekly cycles of 2 µmol/L cisplatin over a period of 24 weeks) were seeded at a density of 8,000 cells/well in 96well plates (Corning, Germany) in 90 µL drug-free complete medium. After an incubation period of 24 h at 37 °C under humidified air supplemented with 5% CO2, cells were exposed to dilutions of the test compounds in 100 µL/well. Stock solutions were prepared in a concentration of 10^-2 M in water, and serial dilutions were prepared by using sodium chloride 0.9%. Incubation was ended after 72 h and cell survival was determined by addition of 25 µL/well MTT solution (5 mg/mL in phosphate buffered saline). After an incubation period of 10 min at 37 °C, the medium was carefully removed. The intracellular formazan product was solubilized by adding 75 µl DMSO/well. Absorbance was measured at 544 nm and 690 nm with a FLUOstar microplate-reader (BMG LabTech, Offenburg, Germany). The absorbance of untreated control cells was taken as 100% viability. All tests were performed in triplicate.
(§3) Indicated are mean values ± standard error of the mean. Concentration/inhibition curves were fitted to the data by nonlinear regression analysis using the four parameter logistic equation (GraphPad Prism).
Background: Tetrazolium assays rely on reduction of a dye to a coloured formazan, in cell work by metabolically active cells.

Series [2] concerns A2780 CisR cells. Description: MTT cell viability assay, cisplatin resistance model. The class given is cell-based. To be noted: for IC50: A2780 CisR cells, 72 h incubation, MTT; for resistance factor: ratio of IC50 in A2780 CisR cells to IC50 in parental A2780 cells. The method, then: as §1, §2, §3
Values are means ± SEM derived from a representative experiment performed in triplicate. The resistance factor was calculated as the ratio of the IC50 value of the A2780 CisR cells and the IC50 value of the corresponding sensitive parental A2780 cell line.

Series [3] can be described thus: Solubility observed during preparation. The class given is physicochemical. The settings on record: for solubility in solvents in general: most or all solvents (ambient temperature, including CH2Cl2 and THF; including DMSO).

Turning to `C1NCC2CNCC1C2.O=C1[O][Pt][O]C1=O` [compound 3, (C7H14N2)Pt(C2O4)], the IC50 (in general, the point on the concentration scale where inhibition reaches its midpoint) in series [1] came to 7.24 µM; in series [2], 35.3 µM. Also, the resistance factor in series [2] is given as 4.88.
With `C1NCC2CNCC1C2.CN(C)C=O.[Cl][Pt][Cl]` [1b, (C7H14N2)PtCl2·DMF], in series [3], the “solubility in DMF” value is reported as “dissolve increasingly well”, the “solubility in DMSO” value is given as “dissolve increasingly well”, the “solubility in solvents in general” value was “insoluble in most solvents” and the solubility in water entry is “dissolve increasingly well”.
Regarding `C1NCC2CNCC1C2.O=C1[O][Pt][O]C(=O)C12CCC2` [2a, (C7H14N2)Pt{(O2C)2C4H6}], in series [3], the “solubility in DMF” value is reported as “poor” and the solubility in water entry is given as “more soluble in water than the dichloride 1”. The half-inhibitory concentration (IC50) in series [1] was found to be 8.84 µM. In series [2], inhibition was half-maximal at 57.1 µM (IC50) and the resistance factor is 6.46.
With `O=C([O-])C1(C(=O)[O-])CCC1.OC1(O)C2CNCC1CNC2.[Pt+2]` [compound 6, (Bispidin-9,9-diol)platinum(II)(1,1-cyclobutanedicarboxylate)], in series [3], the “solubility in DMF” value was “dissolves well”, the “solubility in DMSO” value was “dissolves well” and the solubility in water entry is recorded as “dissolves well”.
`N.N.O=C([O-])C1(C(=O)[O-])CCC1.[Pt+2]` [carboplatin, reference compound] yielded an IC50 in series [1] of 4.23 µM. Further, in series [2], inhibition was half-maximal at 40.2 µM (IC50) and the resistance factor is 9.50.
As for `[Cl][Pt]1([Cl])[N]2CC3C[N]1CC(C2)C31OCCO1` [compound 4, (Spiro[bispidin-9,2'-[1,3]dioxolane])platinum(II)dichloride], the “solubility in solvents in general” value in series [3] is “insoluble in all solvents, including DMSO”.
`C1NCC2CNCC1C2.[Cl][Pt][Cl]` [1a, (C7H14N2)PtCl2]: in series [3], the “solubility in DMF” value was “dissolve increasingly well”, the “solubility in DMSO” value is “dissolve increasingly well”, the “solubility in solvents in general” value was “insoluble in most solvents” and the solubility in water result is listed as “dissolve increasingly well”. In addition, half-maximal inhibition in series [1] (IC50) required 4.2 µM. Moreover, in series [2], the half-maximal inhibitory concentration (IC50) worked out at 10.6 µM and the resistance factor is on record as 2.52.
Turning to `O=C1[O][Pt]2([NH][C@@H]3CCCC[C@H]3[NH]2)[O]C1=O` (relative stereo) [oxaliplatin, trans-(R,R)-1,2-diamino-cyclohexane platinum(II)oxalate, reference compound], 0.21 µM corresponded to half-maximal inhibition in series [1] (IC50). In addition, in series [2], inhibition was half-maximal at 0.95 µM (IC50) and the resistance factor turned out to be 4.52.
As for `N.N.[Cl][Pt][Cl]` [cisplatin, cis-(NH3)2PtCl2, reference compound], in series [1], 1.38 µM corresponded to half-maximal inhibition (IC50).
